Consider nine compounds from DBAASP.

SMILES strings stand for the structures. Values after ≈ are worked out from the molar mass of the structure shown.

Common to all, as to test: ≥ marks a high value that may be exact or a test limit, other limits are often not marked, values filed in µg/mL are converted to µM
The subject of assay [1] is Staphylococcus aureus USA 100.
For assay [2], the system named is Candida albicans NCPF 1467.
Assay [3] concerns Escherichia coli NCTC 10418.
In assay [4] the test system is Staphylococcus aureus NCTC 10788.
Assay [5] relates to Escherichia coli DH5alpha.
In assay [6] the test system is Staphylococcus xylosus.
Assay [7] concerns Candida albicans ATCC 90028.
Assay [8] deals with Escherichia coli ATCC 25922.
Assay [9] has as its system Escherichia coli KCTC 1682.
Assay [10] relates to Pseudomonas aeruginosa ATCC 9027.
Assay [11] relates to Pseudomonas aeruginosa KCTC 1637.
The subject of assay [12] is Staphylococcus aureus ATCC 25923.
Assay [13] deals with Staphylococcus aureus KCTC 1621.
For assay [14], the system named is Staphylococcus aureus USA 300.
In assay [15] the test system is Staphylococcus epidermidis KCTC 1917.

Take `NC(=O)[C@H](CCCN=C(N)N)NC(=O)[C@H](CC(=O)O)NC(=O)[C@H](CCCN=C(N)N)NC(=O)[C@@H](N)CC(=O)O` [DRDR]: the MIC – broadly, the smallest concentration in the dilution series that meets the test's criterion for growth inhibition – in assay [1] was no less than 100 µM.

`NC(=O)[C@H](CCCN=C(N)N)NC(=O)[C@H](Cc1ccccc1)NC(=O)[C@H](CCCN=C(N)N)NC(=O)[C@@H](N)Cc1ccccc1` [FRFR] gave an MIC in assay [1] of no less than 100 µM.

In the case of `CC[C@H](C)[C@H](NC(=O)[C@H](CO)NC(=O)[C@H](CC(N)=O)NC(=O)[C@@H](NC(=O)[C@H](CC(C)C)NC(=O)[C@H](C)NC(=O)[C@H](CO)NC(=O)[C@H](C)NC(=O)[C@H](Cc1ccccc1)NC(=O)[C@H](CC(=O)O)NC(=O)[C@H](CCCCN)NC(=O)[C@H](C)NC(=O)CNC(=O)[C@H](CCCCN)NC(=O)[C@H](CCCCN)NC(=O)[C@H](CC(C)C)NC(=O)[C@H](CCCCN)NC(=O)[C@H](CCC(=O)O)NC(=O)[C@H](CC(C)C)NC(=O)[C@H](Cc1ccccc1)NC(=O)CN)C(C)C)C(=O)N[C@@H](CCCCN)C(=O)NCC(=O)N[C@H](C(=O)O)[C@@H](C)O` [GFLEKLKKGAKDFASALVNSIKGT], the MIC is no less than 101 µM in assay [2], no less than 50.7 µM in assay [3] and no less than 203 µM in assay [4].

On to `CC[C@H](C)[C@H](NC(=O)CN)C(=O)NCC(=O)NCC(=O)N[C@@H](C)C(=O)N[C@@H](CC(C)C)C(=O)N[C@@H](CC(C)C)C(=O)N[C@@H](CC(N)=O)C(=O)N[C@H](C(=O)NCC(=O)N[C@@H](CCCCN)C(=O)N[C@H](C(=O)N[C@@H](C)C(=O)N[C@@H](CC(C)C)C(=O)N[C@@H](CCCCN)C(=O)NCC(=O)N[C@@H](CC(C)C)C(=O)N[C@@H](C)C(=O)N[C@@H](CCCCN)C(=O)NCC(=O)N[C@@H](CC(C)C)C(=O)N[C@@H](C)C(=O)N[C@@H](CCC(=O)O)C(=O)N[C@@H](Cc1cnc[nH]1)C(=O)N[C@@H](Cc1ccccc1)C(=O)N[C@@H](C)C(=O)N[C@@H](CC(N)=O)C(N)=O)C(C)C)C(C)C` [GIGGALLNVGKVALKGLAKGLAEHFAN], for which the MIC stood at 12.2 µM (≈ 32 µg/mL) in [2], 12.2 µM (≈ 32 µg/mL) in [3] and 3.05 µM (≈ 8 µg/mL) in assay [4].

With `CC[C@H](C)[C@H](NC(=O)[C@H](CCCCN)NC(=O)[C@H](CCCCN)NC(=O)[C@@H](N)CCCCN)C(=O)N[C@H](C(=O)N[C@H](C(=O)N[C@H](C(=O)N[C@H](C(=O)N[C@@H](CCCCN)C(=O)N[C@@H](CCCCN)C(=O)N[C@@H](CCCCN)C(=O)O)[C@@H](C)CC)[C@@H](C)CC)[C@@H](C)CC)[C@@H](C)CC` [KKKIIIIIKKK], the MIC in assay [5] turned out to be 8 µM (≈ 10.8 µg/mL); in [6], 0.5 µM (≈ 0.676 µg/mL).

Turning to `CC(C)[C@H](NC(=O)[C@H](CCCCN)NC(=O)[C@H](CCCCN)NC(=O)[C@@H](N)CCCCN)C(=O)N[C@H](C(=O)N[C@H](C(=O)N[C@H](C(=O)N[C@H](C(=O)N[C@@H](CCCCN)C(=O)N[C@@H](CCCCN)C(=O)N[C@@H](CCCCN)C(=O)O)C(C)C)C(C)C)C(C)C)C(C)C` [KKKVVVVVKKK], the MIC in assay [5] was no less than 64 µM; in [6], 8 µM (≈ 10.3 µg/mL).

As for `CC[C@H](C)[C@H](NC(=O)[C@@H](N)CC(C)C)C(=O)N[C@@H](CCCCN)C(=O)N[C@@H](CCCN=C(N)N)C(=O)N[C@@H](CCCCN)C(=O)O` [LIKRK], the MIC in assay [5] and in [6] was no less than 64 µM in each case.

Turning to `NCCCC[C@H](NC(=O)[C@H](Cc1c[nH]c2ccccc12)NC(=O)[C@H](CCCCN)NC(=O)[C@@H](N)Cc1c[nH]c2ccccc12)C(N)=O` [WKWK], in assay [1], the MIC is no less than 100 µM.

Consider `NC(=O)[C@H](CCCN=C(N)N)NC(=O)[C@H](Cc1c[nH]c2ccccc12)NC(=O)[C@H](CCCN=C(N)N)NC(=O)[C@H](Cc1c[nH]c2ccccc12)NC(=O)[C@H](CCCN=C(N)N)NC(=O)[C@@H](N)Cc1c[nH]c2ccccc12` [WRWRWR], for which the MIC is no less than 100 µM in assay [7]; 7.18 µM (≈ 7.49 µg/mL) in assay [8]; 3.83 µM (≈ 4 µg/mL) in assay [9]; greater than 100 µM in assay [10]; 15.3 µM (≈ 16 µg/mL) in assay [11]; 7.18 µM (≈ 7.49 µg/mL) in [12]. The MIC in assay [13] was found to be 7.65 µM (≈ 7.99 µg/mL); in assay [1], 25 µM (≈ 26.1 µg/mL); in assay [14], 25 µM (≈ 26.1 µg/mL); in assay [15] it was 7.65 µM (≈ 7.99 µg/mL).
